Laboratory results from PubChem BioAssay AID2060618 (Molecular Pharmacology Branch, DTP, NCI, 2025).

System: 454973-116-R2-J3-PDC spheroids, percent test/control viability
Test: Anticancer human tumor 454973-116-R2-J3-PDC patient-derived pancreatic carcinoma cell line growth inhibition [CLK]
Conditions: spheroids with HUVEC and MSC; for IC50: curve of first compound; for viability, T/C: stronger effect = lower value
In short: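 Multi-cell-type spheroids combined patient-derived tumor cells with HUVEC endothelial cells and human mesenchymal stem cells. Paired agents were dosed in half-log steps down from about clinical Cmax, or from 10 microM where Cmax was unknown.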
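Also: spheroids exposed to compounds for 7 days before readout.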

CC(C)CC(NC(=O)C(Cc1ccccc1)NC(=O)c1cnccn1)B(O)O (centres undefined) + CNC(=O)c1ccc(Nc2nc(OC3CCCC3)c3c(-c4ccc5nc(C)oc5c4)c[nH]c3n2)c(OC)c1
IC50 (second compound 0.0316 µM): 2.55 nM
IC50 (second compound 0.1 µM): 2.9 nM
IC50 (second compound 0.316 µM): 1.08 nM
IC50 (second compound 1 µM): < 0.949 nM
IC50 (second compound 3.16 µM): < 0.949 nM
IC50 (second compound 10 µM): < 0.949 nM
viability, T/C (second compound 0.0316 µM, first compound 0.000949 µM): 104%
viability, T/C (second compound 0.0316 µM, first compound 0.003 µM): 41%
viability, T/C (second compound 0.0316 µM, first compound 0.00949 µM): 3.37%
viability, T/C (second compound 0.0316 µM, first compound 0.03 µM): 3.93%
viability, T/C (second compound 0.0316 µM, first compound 0.0949 µM): 1%
viability, T/C (second compound 0.0316 µM, first compound 0.3 µM): 1.85%
viability, T/C (second compound 0.1 µM, first compound 0.000949 µM): 108%
viability, T/C (second compound 0.1 µM, first compound 0.003 µM): 48.3%
viability, T/C (second compound 0.1 µM, first compound 0.00949 µM): 0.31%
viability, T/C (second compound 0.1 µM, first compound 0.03 µM): 2.58%
viability, T/C (second compound 0.1 µM, first compound 0.0949 µM): 2.61%
viability, T/C (second compound 0.1 µM, first compound 0.3 µM): 0.65%
viability, T/C (second compound 0.316 µM, first compound 0.000949 µM): 54.1%
viability, T/C (second compound 0.316 µM, first compound 0.003 µM): 18.6%
viability, T/C (second compound 0.316 µM, first compound 0.00949 µM): 1.42%
viability, T/C (second compound 0.316 µM, first compound 0.03 µM): 3.86%
viability, T/C (second compound 0.316 µM, first compound 0.0949 µM): 1.32%
viability, T/C (second compound 0.316 µM, first compound 0.3 µM): 0.81%
viability, T/C (second compound 1 µM, first compound 0.000949 µM): 41.6%
viability, T/C (second compound 1 µM, first compound 0.003 µM): 7.07%
viability, T/C (second compound 1 µM, first compound 0.00949 µM): 2.43%
viability, T/C (second compound 1 µM, first compound 0.03 µM): 2.96%
viability, T/C (second compound 1 µM, first compound 0.0949 µM): 3.35%
viability, T/C (second compound 1 µM, first compound 0.3 µM): 1.14%
viability, T/C (second compound 3.16 µM, first compound 0.000949 µM): 30.4%
viability, T/C (second compound 3.16 µM, first compound 0.003 µM): 3.95%
viability, T/C (second compound 3.16 µM, first compound 0.00949 µM): 1.54%
viability, T/C (second compound 3.16 µM, first compound 0.03 µM): 1.66%
viability, T/C (second compound 3.16 µM, first compound 0.0949 µM): 2.98%
viability, T/C (second compound 3.16 µM, first compound 0.3 µM): 0.23%
viability, T/C (second compound 10 µM, first compound 0.000949 µM): 28.3%
viability, T/C (second compound 10 µM, first compound 0.003 µM): 2.63%
viability, T/C (second compound 10 µM, first compound 0.00949 µM): 1.46%
viability, T/C (second compound 10 µM, first compound 0.03 µM): 3.63%
viability, T/C (second compound 10 µM, first compound 0.0949 µM): 1.96%
viability, T/C (second compound 10 µM, first compound 0.3 µM): 0.7%

O=C(c1cc(Cc2n[nH]c(=O)c3ccccc23)ccc1F)N1CCN(C(=O)C2CC2)CC1 + CNC(=O)c1ccc(Nc2nc(OC3CCCC3)c3c(-c4ccc5nc(C)oc5c4)c[nH]c3n2)c(OC)c1
IC50 (second compound 0.0316 µM): > 10000 nM
IC50 (second compound 0.1 µM): > 10000 nM
IC50 (second compound 0.316 µM): < 31.6 nM
IC50 (second compound 1 µM): < 31.6 nM
IC50 (second compound 3.16 µM): < 31.6 nM
IC50 (second compound 10 µM): < 31.6 nM
viability, T/C (second compound 0.0316 µM, first compound 0.0316 µM): 94.7%
viability, T/C (second compound 0.0316 µM, first compound 0.1 µM): 107%
viability, T/C (second compound 0.0316 µM, first compound 0.316 µM): 98.4%
viability, T/C (second compound 0.0316 µM, first compound 1 µM): 104%
viability, T/C (second compound 0.0316 µM, first compound 3.16 µM): 94.6%
viability, T/C (second compound 0.0316 µM, first compound 10 µM): 75.9%
viability, T/C (second compound 0.1 µM, first compound 0.0316 µM): 101%
viability, T/C (second compound 0.1 µM, first compound 0.1 µM): 105%
viability, T/C (second compound 0.1 µM, first compound 0.316 µM): 95.8%
viability, T/C (second compound 0.1 µM, first compound 1 µM): 101%
viability, T/C (second compound 0.1 µM, first compound 3.16 µM): 92.8%
viability, T/C (second compound 0.1 µM, first compound 10 µM): 77.4%
viability, T/C (second compound 0.316 µM, first compound 0.0316 µM): 39.6%
viability, T/C (second compound 0.316 µM, first compound 0.1 µM): 52.1%
viability, T/C (second compound 0.316 µM, first compound 0.316 µM): 40.9%
viability, T/C (second compound 0.316 µM, first compound 1 µM): 51.4%
viability, T/C (second compound 0.316 µM, first compound 3.16 µM): 47.8%
viability, T/C (second compound 0.316 µM, first compound 10 µM): 40.3%
viability, T/C (second compound 1 µM, first compound 0.0316 µM): 36.5%
viability, T/C (second compound 1 µM, first compound 0.1 µM): 33.9%
viability, T/C (second compound 1 µM, first compound 0.316 µM): 31.4%
viability, T/C (second compound 1 µM, first compound 1 µM): 33.3%
viability, T/C (second compound 1 µM, first compound 3.16 µM): 29.9%
viability, T/C (second compound 1 µM, first compound 10 µM): 24.3%
viability, T/C (second compound 3.16 µM, first compound 0.0316 µM): 32.3%
viability, T/C (second compound 3.16 µM, first compound 0.1 µM): 33.2%
viability, T/C (second compound 3.16 µM, first compound 0.316 µM): 35.1%
viability, T/C (second compound 3.16 µM, first compound 1 µM): 32%
viability, T/C (second compound 3.16 µM, first compound 3.16 µM): 29.4%
viability, T/C (second compound 3.16 µM, first compound 10 µM): 22.5%
viability, T/C (second compound 10 µM, first compound 0.0316 µM): 26.3%
viability, T/C (second compound 10 µM, first compound 0.1 µM): 33.6%
viability, T/C (second compound 10 µM, first compound 0.316 µM): 30.4%
viability, T/C (second compound 10 µM, first compound 1 µM): 29.4%
viability, T/C (second compound 10 µM, first compound 3.16 µM): 28.2%
viability, T/C (second compound 10 µM, first compound 10 µM): 23.8%
